“And” between values parts separate entries of the source, which are not always exact repeats. Equal entries are not always repeated.
Tested on: MCF-7 cells, human transcripts
Assay: Affymetrix U133 2.0 Plus microarray analysis of gene expression
Type: cell-based
Method: FIG. 4 depicts microarray analysis of changes in gene expression in MCF-7 cells treated with RAR agonist LGD1550 or RAR antagonist LG100815, plotted using GeneSpring software. The X axis represents different time points of treatment with RAR ligands (0 point correspond to cells cultured for 3 days with DMSO carrier).
To determine the effects of the RAR agonist and antagonist on the expression of essentially all the human genes, MCF-7 cells were treated with 100 nM of RAR agonist LGD1550 or 10 μM of RAR antagonist LG100815, concentrations that provide maximal induction of gene expression according to Q-PCR assays (as discussed above). Cells were treated for 24, 48 or 72 hrs, and total RNA from the untreated or treated cells was isolated using Qiagen's RNeasy Total RNA Isolation Kit. For gene expression profiling, RNA samples were provided to the microarray service facility of the Wadsworth Center Genomics Institute, which carried out biotinylated target preparation and hybridization with Affymetrix U 133 2.0 Plus oligonucleotide microarrays containing 56,000 probe sets representing 48,500 human transcripts. The hybridization signals were normalized using GCRMA procedure and analyzed using GeneSpring software (Silicone Genetics). […] The effects of the agonist and the antagonist also agreed with the results of the earlier analysis of the effects of RA on MCF-7 cells, with all 13 genes previously shown by RT-PCR to be induced in that system (Dokmanovic et al., 2002) also showing induction in the present microarray analysis (FIG. 4b).
RNA or protein products of genes that are induced to a similar level by both the RAR agonist and the RAR antagonist can be used as reporters in screening for compounds with properties similar to LG0100815. RNA or protein products of genes from this group (or promoter constructs for such genes) can be used as reporters in screening for compounds that mimic the effect of retinoids. Table 3, as shown below, lists a set of 508 genes chosen as preferred reporters. These genes were selected by being strongly (at least 2-fold) induced by both the agonist and the antagonist relative to untreated cells and showing no more than two-fold difference between their induction by the agonist and the antagonist. 62 genes listed at the top of Table 3 are particularly preferred reporters, as they are most strongly (at least 4-fold) induced by both the agonist and the antagonist. Table 4, as shown below, lists a set of 53 genes that can be used as preferred markers to discriminate between RARE-dependent and RARE-independent induction of transcription. These genes were chosen by being induced at least 3-fold by the agonist relative to untreated cells and also showing at least 4 times stronger induction by the agonist than by the antagonist. FIG. 6 plots the maximal fold induction of gene expression produced by the agonist versus that produced by the antagonist for the genes listed in Table 3 (particularly preferred reporters only) and in Table 4, with the corresponding trend lines. The relative effects of a tested compound on the genes in Table 3 and Table 4 should indicate whether the compound behaves as a RAR agonist or RAR antagonist. For example, one can select matching pairs of genes from Table 3 and Table 4 that are induced by the agonist to approximately the same degree. A compound that mimics the effects of the agonist should induce such genes to a similar level, whereas a compound that behaves like an antagonist should induce the gene from Table 3 to a much greater degree than the gene from Table 4.

[1] = MCF-7, LGD1550 100 nM, 24, 48 or 72 hrs
[2] = MCF-7, LGD1550 100 nM, 24, 48 or 72 hrs, listed as agonist

Structure (SMILES): CC(/C=C/C=C(\C)c1cc(C(C)(C)C)cc(C(C)(C)C)c1)=C\C(=O)O [LGD1550]
- Maximal effect, Fold induction (Genbank AI911972, probe 230780_at): 3.89 fold
- Maximal effect, Fold induction (Genbank AW268719, probe 236798_at): 2.03 fold
- Maximal effect, Fold induction (Genbank AW612407, probe 230098_at): 2.32 fold
- Maximal effect, Fold induction (Genbank BF038869, probe 235322_at): 2.13 fold
- Maximal effect, Fold induction (Genbank CA442342, probe 1556097_at): 3.11 fold
- HOXA4 fold induction by the agonist (MCF-7, LGD1550 100 nM): 7.8 fold
- RBP1 fold induction by the agonist (MCF-7, LGD1550 100 nM): 4.4 fold
- number of 40 RARE-containing human genes induced ≧1.5-fold (MCF-7, LGD1550 100 nM): seven
- response of RARE-containing genes induced by both ligands, agonist relative to antagonist (MCF-7, LGD1550 100 nM vs LG100815 10 μM): 3-5 fold stronger
- APXL2 239435_x_at fold induction, maximal effect of agonist [1]: 63.13 fold
- APXL2 241935_at fold induction, maximal effect of agonist [1]: 5.82 fold
- BF593636 228642_at fold induction, maximal effect of agonist [1]: 130.43 fold
- CA448125 1557050_at fold induction, maximal effect of agonist [1]: 8.90 fold
- CA448125 1557051_s_at fold induction, maximal effect of agonist [1]: 23.74 fold
- CEACAM1 206576_s_at fold induction, maximal effect of agonist [1]: 16.23 fold
- CP 228143_at fold induction, maximal effect of agonist [1]: 10.88 fold
- CP 1558034_s_at fold induction, maximal effect of agonist [1]: 44.25 fold
- CYP1A1 205749_at raw signal, maximal effect of agonist [1]: 35.09
- GBP3 223434_at fold induction, maximal effect of agonist [1]: 7.32 fold
- HOXA3 230080_at fold induction, maximal effect of agonist [1]: 10.38 fold
- HPS3 227253_at fold induction, maximal effect of agonist [1]: 21.01 fold
- HSXIAPAF1 228617_at fold induction, maximal effect of agonist [1]: 17.54 fold
- IGFBP3 212143_s_at fold induction, maximal effect of agonist [1]: 16.12 fold
- KRT4 213240_s_at fold induction, maximal effect of agonist [1]: 9.38 fold
- OAS2 204972_at fold induction, maximal effect of agonist [1]: 15.91 fold
- RNASE1 201785_at fold induction, maximal effect of agonist [1]: 49.39 fold
- SLC1A1 213664_at fold induction, maximal effect of agonist [1]: 8.96 fold
- TRIM31 215444_s_at fold induction, maximal effect of agonist [1]: 12.16 fold
- CYP26A1 206424_at fold induction, maximal effect of agonist [2]: 220 fold and 220.23 fold
- HOXA1 214639_s_at fold induction, maximal effect of agonist [2]: 95 fold
- Maximal effect, Fold induction (gene ACVR1B, Genbank NM_020327, probe 208223_s_at): 2.81 fold
- Maximal effect, Fold induction (gene ADFP, Genbank BC005127, probe 209122_at): 2.05 fold
- Maximal effect, Fold induction (gene AKAP13, Genbank AK022014, probe 222024_s_at): 2.03 fold
- Maximal effect, Fold induction (gene AMIGO, Genbank AA001423, probe 226718_at): 2.40 fold
- Maximal effect, Fold induction (gene ARHGAP5, Genbank AK023014, probe 233849_s_at): 2.03 fold
- Maximal effect, Fold induction (gene ARMCX3, Genbank AL121883, probe 222444_at): 2.01 fold
- Maximal effect, Fold induction (gene BHLHB2, Genbank NM_003670, probe 201170_s_at): 3.46 fold
- Maximal effect, Fold induction (gene CASP2, Genbank BC002427, probe 209811_at): 3.72 fold
- Maximal effect, Fold induction (gene CDKL5, Genbank AI611074, probe 227004_at): 3.20 fold
- Maximal effect, Fold induction (gene CHP, Genbank NM_007236, probe 207993_s_at): 2.32 fold
- Maximal effect, Fold induction (gene CRTAP, Genbank AA025858, probe 227138_at): 2.07 fold
- Maximal effect, Fold induction (gene CTMP, Genbank AI184512, probe 229253_at): 2.03 fold
- Maximal effect, Fold induction (gene DKFZp434H2226, Genbank AL137370, probe 232893_at): 2.04 fold
- Maximal effect, Fold induction (gene DKFZp434K2435, Genbank AL136855, probe 223594_at): 2.08 fold
- Maximal effect, Fold induction (gene DNCL2B, Genbank AW959427, probe 238116_at): 2.02 fold
- Maximal effect, Fold induction (gene DSCR1, Genbank NM_004414, probe 208370_s_at): 3.64 fold
- Maximal effect, Fold induction (gene DUSP3, Genbank NM_004090, probe 201538_s_at): 2.94 fold
- Maximal effect, Fold induction (gene DUSP16, Genbank AY038927, probe 1555399_a_at): 2.30 fold
- Maximal effect, Fold induction (gene FLJ10996, Genbank NM_019044, probe 219774_at): 2.02 fold
- Maximal effect, Fold induction (gene FLJ11196, Genbank NM_018357, probe 218651_s_at): 2.24 fold
- Maximal effect, Fold induction (gene FLJ30656, Genbank BF197707, probe 212529_at): 2.09 fold
- Maximal effect, Fold induction (gene FLJ32096, Genbank AK056658, probe 1555870_at): 2.98 fold
- Maximal effect, Fold induction (gene FOXO3A, Genbank N25732, probe 204131_s_at): 2.53 fold
- Maximal effect, Fold induction (gene GALNT7, Genbank BF699855, probe 222587_s_at): 2.51 fold
- Maximal effect, Fold induction (gene GUCY1B2, Genbank NM_004129, probe 220506_at): 2.63 fold
- Maximal effect, Fold induction (gene HIG2, Genbank NM_013332, probe 218507_at): 2.19 fold
- Maximal effect, Fold induction (gene HNRPL, Genbank X16135, probe 35201_at): 2.16 fold
- Maximal effect, Fold induction (gene INPP1, Genbank NM_002194, probe 202794_at): 2.01 fold
- Maximal effect, Fold induction (gene INSIG1, Genbank BG292233, probe 201626_at): 2.04 fold
- Maximal effect, Fold induction (gene JMJD3, Genbank AB002344, probe 41386_i_at): 2.48 fold
- Maximal effect, Fold induction (gene KIAA1219, Genbank BG236163, probe 221738_at): 2.03 fold
- Maximal effect, Fold induction (gene LCP1, Genbank J02923, probe 208885_at): 2.25 fold
- Maximal effect, Fold induction (gene LGALS8, Genbank L78132, probe 208935_s_at): 2.79 fold
- Maximal effect, Fold induction (gene LOC23117, Genbank AL047052, probe 235060_at): 2.00 fold
- Maximal effect, Fold induction (gene LOC55971, Genbank AA496034, probe 227372_s_at): 2.09 fold
- Maximal effect, Fold induction (gene LOC158402, Genbank BE504242, probe 236769_at): 2.00 fold
- Maximal effect, Fold induction (gene LOC284408, Genbank AW467077, probe 235779_at): 2.03 fold
- Maximal effect, Fold induction (gene MAML2, Genbank AI769569, probe 235457_at): 3.92 fold
- Maximal effect, Fold induction (gene MAP3K1, Genbank AA541479, probe 225927_at): 2.05 fold
- Maximal effect, Fold induction (gene MDM4, Genbank NM_002393, probe 205655_at): 2.06 fold
- Maximal effect, Fold induction (gene MGC9850, Genbank BE378670, probe 224857_s_at): 2.58 fold
- Maximal effect, Fold induction (gene MICAL2, Genbank BE965029, probe 212473_s_at): 2.01 fold
- Maximal effect, Fold induction (gene MT1X, Genbank NM_005952, probe 208581_x_at): 3.10 fold
- Maximal effect, Fold induction (gene NEDD9, Genbank AL136139, probe 202149_at): 2.24 fold
- Maximal effect, Fold induction (gene NQO1, Genbank AI039874, probe 201467_s_at): 2.56 fold
- Maximal effect, Fold induction (gene NR3C1, Genbank AI432196, probe 201865_x_at): 2.08 fold
- Maximal effect, Fold induction (gene PARVA, Genbank NM_018222, probe 217890_s_at): 2.17 fold
- Maximal effect, Fold induction (gene PRDM15, Genbank AP001745, probe 225539_at): 2.04 fold
- Maximal effect, Fold induction (gene PRSS23, Genbank NM_007173, probe 202458_at): 2.05 fold
- Maximal effect, Fold induction (gene PSMD7, Genbank AW361702, probe 238738_at): 2.04 fold
- Maximal effect, Fold induction (gene PTK9, Genbank N25562, probe 214008_at): 2.05 fold
- Maximal effect, Fold induction (gene QDPR, Genbank BC000576, probe 209123_at): 2.02 fold
- Maximal effect, Fold induction (gene S100P, Genbank NM_005980, probe 204351_at): 2.33 fold
- Maximal effect, Fold induction (gene SGPL1, Genbank NM_003901, probe 208381_s_at): 2.14 fold
- Maximal effect, Fold induction (gene SLC35D2, Genbank AJ005866, probe 213083_at): 2.73 fold
- Maximal effect, Fold induction (gene SMAD5, Genbank AI439752, probe 235451_at): 2.30 fold
- Maximal effect, Fold induction (gene STYX, Genbank BG390493, probe 244030_at): 2.01 fold
- Maximal effect, Fold induction (gene SUOX, Genbank NM_000456, probe 1553030_a_at): 2.05 fold
- Maximal effect, Fold induction (gene TACSTD2, Genbank J04152, probe 202286_s_at): 2.17 fold
- Maximal effect, Fold induction (gene TEAD2, Genbank AA337048, probe 238323_at): 2.81 fold
- Maximal effect, Fold induction (gene TGFB2, Genbank AU145950, probe 228121_at): 2.04 fold
- Maximal effect, Fold induction (gene TLE3, Genbank AI567426, probe 212769_at): 2.72 fold
- Maximal effect, Fold induction (gene TMEM42, Genbank BF056095, probe 226361_at): 2.47 fold
- Maximal effect, Fold induction (gene TNFAIP2, Genbank NM_006291, probe 202510_s_at): 2.41 fold
- Maximal effect, Fold induction (gene TRIO, Genbank AV718192, probe 209012_at): 2.07 fold
- Maximal effect, Fold induction (gene UROS, Genbank NM_000375, probe 203031_s_at): 2.13 fold
- Maximal effect, Fold induction (gene USP24, Genbank BF444943, probe 212381_at): 2.01 fold
- Maximal effect, Fold induction (gene VHL, Genbank BF972755, probe 1559227_s_at): 2.05 fold
- Maximal effect, Fold induction (gene WIG1, Genbank NM_022470, probe 219628_at): 2.30 fold
- Maximal effect, Fold induction (gene ZNF26, Genbank BC046206, probe 1555325_s_at): 2.03 fold
- Maximal effect, Fold induction (gene ZNF281, Genbank AA121673, probe 228785_at): 2.28 fold
- Maximal effect, Fold induction (gene ZNF286, Genbank BM968434, probe 1557684_at): 2.29 fold
